Measured values reported in paper PMC10360056, “Chemical Evolution of Amphiphilic Xenopeptides for Potentiated Cas9 Ribonucleoprotein Delivery” (Journal of the American Chemical Society, 2023).

What was measured:
[1] = test system: HeLa eGFP/tub cells; test: eGFP knockout study by Cas9 RNP nanocarriers, flow cytometry; format: cell-based; details: 1 nM RNP, 48 h treatment, N/P 24
Experimental: HeLa WT, HeLa eGFP/tub, HeLa GFPd2 (destabilized eGFP), CT26 eGFP/luc and N2a eGFP/luc cells were grown in DMEM medium supplemented with 10 % FBS, 100 U/mL penicillin, and 100 μg/mL streptomycin. The cells were cultured in ventilated flasks in the cell incubator at 37 °C and 5 % CO2 in a humidified atmosphere. The cells were passaged at a confluency of […]
Cells were harvested and resuspended in 600 μL of FACS buffer (PBS buffer containing 10 % FBS). The samples were ana-lyzed by flow cytometry on a CytoFLEX S flow cytometer (Beckman Coulter, CA, USA). For eGFP knockout and cellular uptake experiments, 0.6 μL of 1 μg/μL DAPI was added to each sample for differentiating live and dead cells before the measurement. The DAPI signal and BFP fluorescence were detected with 405 nm excitation and 450 nm emission. The eGFP and ATTO488 fluorescence was assayed with 488 nm excitation and 530 nm emission. The ATTO647N fluorescence was assayed with 640 nm excitation and 670 nm emission. Ten thousand of isolated live cells were counted and evaluated. The data were analyzed using FlowJo 7.6.5 by FlowJo, LLC (Becton, Dickinson and Company, USA). […]
Endosomal escape of Cas9 RNP nanocarriers […]
Next, the […]
cells were washed twice with PBS and then fixed with 4 % PFA at RT for 40 min. Afterwards, the cells were washed and incubated with 2 µg/mL DAPI (for staining cell nuclei) for 30 min. Then, the staining solution was removed and 300 μL fresh PBS were added. The slides w ere stored at 4 °C in the dark until the measurement. […]
Then, the image was conv erted into 8-bit type. The mRuby3/gal8 spots were further determined by Threshold tool, and the number of the spots in the cell cytosol per cell were counted by Analyze Particles tool.
One day prior to the treatments, HeLa eGFP/tub cell s were seeded into 96 -well plates at a density of 5000 cells/well. On the next day, the medium was replaced with 80 μL of fresh medium. 20 μL of Cas9 RNP nanocarriers were added to each well resulting in a series of concentrations of RNP (100, 75, 50, 25, 10, 5, 2.5, 1, 0.5, and 0.1 nM). Lipofectamine CRISPRMAX was tested at the same concentrations of RNP with the preparation procedures as recommended by the manufacturer. The cells were incubated for 48 h. Afterwards, the cells were trypsinized and transfer red to 24-well plates, and incubated for another 72 h. Then, the cells were harvested and prepared for flow cytometry analysis. All experiments were performed in triplicate. eGFP to BFP conversion (HDR) study
One day prior to the treatments, HeLa GFPd2 cel ls were seeded into 96 -well plates at a density of 5000 cells/well. On the next day, the medium was replaced with 80 μL of fresh medium. 20 μL of Cas9 RNP/ssDNA nanocarriers containing different molar ratios of RNP/ssDNA were added to each well resulting i n a series of concentrations of RNP (100, 75, 50, 25, 10, 5, 2.5, 1, 0.5, and 0.1 nM). Lipofectamine CRISPRMAX was tested at the same concentrations of RNP and ssDNA with the prepara-tion procedures as recommended by the manufacturer. The cells were incubat ed for 48 h. Afterwards, the cells were trypsinized and transferred to 24 -well plates, and incubated for another 72 h. Then, the cells were harvested and prepared for flow cytom-etry analysis. […]
Half maximal effective concentration (EC50) values were calculated by GraphPad prism 5. […] All other data were analyzed with GraphPad prism 5 and presented as arithmetic mean ± standard deviation (SD) of at least triplicates. […]

[2] = Characterization of Cas9 RNP nanocarriers by DLS (size, PDI, zeta potential); format: physicochemical; details: N/P ratio 24, RNP 75 nM, three technical replicates; for PDI of Cas9 RNP nanocarriers / hydrodynamic size (z-average) of Cas9 RNP nanocarriers: DLS, HBG pH 7.4, mean ± SD; for zeta potential of Cas9 RNP nanocarriers: electrophoretic light scattering, HEPES 20 mM pH 7.4, mean ± SD
Experimental: Preparation of Cas9 RNP and Cas9 RNP/ssDNA nanocarriers
Cas9 protein was expressed, purified, and stored at -80 °C in storage buffer (20 mM HEPES, 200 mM KCl, 10 mM MgCl 2, 1 mM DTT, 30 % glycerol) as described previously.6 Cas9 protein and sgRNA (dissolved in RNase-free water) were mixed at 1:1 molar ratio and incubated at RT for 15 min to form the Cas9/sgRNA ribonucleoprotein (RNP) complexes. Afterwards, Cas9 RNP was added into the xenopeptide solution in HBG buffer (pH 7.4) at an N/P (nitrogen t o phosphate of sgRNA) ratio of 24. The solution was mixed thoroughly by pipetting up and down and incubated at RT for another 15 min to generate the final Cas9 RNP nanocarriers. In case of preparing Cas9 RNP/ssDNA nanocarriers for HDR experiments, Cas9 RNP was mixed with ssDNA HDR template at 1:1 molar ratio and then added into the xenopeptide solution in HBG buffer (pH 7.4) at an N/P (nitrogen to phosphate of sgRNA plus ssDNA) ratio of 12. The solution was mixed and incubated for 40 min to generate the Cas9 RNP/ssDNA nanocarriers.
Characterization of Cas9 RNP nanocarriers
The hydrodynamic size, PDI and zeta potential of Cas9 RNP nanocarriers were measured by DLS using a Zetasizer Nano ZS (Malvern Instruments, UK). Cas9 RNP nanocarriers were prepared as desc ribed above. The hydrodynamic size of Cas9 RNP nanocarriers containing 1.25 μg Cas9 protein and 0.25 μg sgRNA (Cas9/sgRNA, 1:1 molar ratio) in 100 μL HBG was measured.
Afterwards, 700 μL HEPES buffer (20 mM, pH 7.4) were added to each sample and the soluti on was mixed for the zeta potential measurement. For the dilution stability study, Cas9 RNP nanocarriers were prepared at an RNP concentration of 375 nM (6.25 μg Cas9 protein and 1.25 μg sgRNA) and then diluted with HBG buffer to a series of RNP concentrat ions (75, 50, 25, 10, 5, 2.5, 1, 0.5, and 0.1 nM). The size and zeta potential of diluted samples were measured as described above.

[3] = LogD7.4 determination of xenopeptides (octanol-water); format: physicochemical; details: shake-flask n-octanol/HEPES buffer (20 mM, pH 7.4); 10 μL of 10 mg/mL xenopeptide in water + 90 μL buffer + 100 μL n-octanol; shaken 1400 rpm 24 h; centrifuged, 4 °C 1 h; HPLC, extinction 280 nm; log(Aoctanol/Awater); triplicate
Experimental: LogD7.4 determination of xenopeptides
Octanol-water partition coefficient D at pH 7.4 (logD7.4) was determined as previously reported with slight modification.5
Scheme S3 illustrates the logD7.4 determination procedures of all xenopeptides in this study. Briefly, 10 μL of 10 mg/mL xenopeptides in water were diluted with 90 μL HEPES buffer (20 mM, pH 7.4) in 1.5 mL reaction tubes. 100 μL n-octanol were then added. The tubes were shaken at 1400 rpm for 24 h. Afterwards, the tubes were centrifuged followed by storage at 4 °C for 1 h to separate n-octanol and water phases. 70 μL of each phase were injected for HPLC analysis. The extinction at 280 nm was monitored and the peak area (A) of the xenopeptides was calculated. LogD7.4 was calculated as log(Aoctanol / Awater).
All experiments were performed in triplicate. […]
Cas9 RNP/ssDNA nanocarriers. […]

Compound	PDI of Cas9 RNP nanocarriers [2]	hydrodynamic size (z-average) of Cas9 RNP nanocarriers [2] [nm]	zeta potential of Cas9 RNP nanocarriers [2] [mV]	logD [3]	eGFP knockout [1] [%]
CCCCC/C=C\C/C=C\CCCCCCCC(=O)NCCCC[C@H](NC(=O)CCCCCCC/C=C\C/C=C\CCCCC)C(=O)NCCCC[C@H](NC(=O)[C@H](Cc1c[nH]cn1)NC(=O)CCC(=O)NCCNCCNCCNCCNC(=O)[C@H](Cc1c[nH]cn1)NC(=O)[C@H](Cc1ccc(O)cc1)NC(=O)[C@H](Cc1ccc(O)cc1)NC(=O)[C@H](Cc1ccc(O)cc1)NC(=O)[C@@H](N)CCCCN=[N+]=[N-])C(=O)N[C@@H](Cc1c[nH]cn1)C(=O)NCCNCCNCCNCCNC(=O)CCC(=O)N[C@@H](Cc1c[nH]cn1)C(=O)N[C@@H](Cc1ccc(O)cc1)C(=O)N[C@@H](Cc1ccc(O)cc1)C(=O)N[C@@H](Cc1ccc(O)cc1)C(=O)O [Stp1-H-LinA]	–	–	–	–	~80
CCCCC/C=C\C/C=C\CCCCCCCC(=O)NCCCC[C@H](NC(=O)CCCCCCC/C=C\C/C=C\CCCCC)C(=O)NCCCC[C@H](NC(=O)CNCC(=O)NCCNCCNCCNCCNC(=O)[C@H](Cc1ccc(O)cc1)NC(=O)[C@H](Cc1ccc(O)cc1)NC(=O)[C@H](Cc1ccc(O)cc1)NC(=O)[C@@H](N)CCCCN=[N+]=[N-])C(=O)NCCNCCNCCNCCNC(=O)CNCC(=O)N[C@@H](Cc1ccc(O)cc1)C(=O)N[C@@H](Cc1ccc(O)cc1)C(=O)N[C@@H](Cc1ccc(O)cc1)C(=O)O [IDAtp1-LinA]	–	–	–	-1.11	–
CCCCC/C=C\C/C=C\CCCCCCCC(=O)NCCCC[C@H](NC(=O)CCCCCCC/C=C\C/C=C\CCCCC)C(=O)NCCCC[C@H](NC(=O)CCCC(=O)NCCCNCCNCCCNC(=O)[C@H](Cc1ccc(O)cc1)NC(=O)[C@H](Cc1ccc(O)cc1)NC(=O)[C@H](Cc1ccc(O)cc1)NC(=O)[C@@H](N)CCCCN=[N+]=[N-])C(=O)NCCCNCCNCCCNC(=O)CCCC(=O)N[C@@H](Cc1ccc(O)cc1)C(=O)N[C@@H](Cc1ccc(O)cc1)C(=O)N[C@@H](Cc1ccc(O)cc1)C(=O)O [GEIPA1-LinA]	–	–	–	-0.33	–

Further lines, with some results ahead:

PDI of Cas9 RNP nanocarriers [2]	hydrodynamic size (z-average) of Cas9 RNP nanocarriers [2] [nm]	zeta potential of Cas9 RNP nanocarriers [2] [mV]	logD [3]	Compound	eGFP knockout [1] [%]
0.28 ± 0.02	179.8 ± 5.3	13.4 ± 2.1	–	K(N3)-C-Y3-GEIPA2-K(K(OHSteA)2)-GEIPA2-Y3-C [GEIPA2-C-OHSteA, lipid-modified xenopeptide, X2-C-OHSteA architecture, artificial amino acid GEIPA]	–
0.19 ± 0.02	189.1 ± 4.2	13.7 ± 1.2	-1.51	CCCCC/C=C\C/C=C\CCCCCCCC(=O)NCCCC[C@H](NC(=O)CCCCCCC/C=C\C/C=C\CCCCC)C(=O)NCCCC[C@H](NC(=O)[C@H](Cc1c[nH]cn1)NC(=O)CNCC(=O)NCCNCCNCCNCCNC(=O)[C@H](Cc1c[nH]cn1)NC(=O)[C@H](Cc1ccc(O)cc1)NC(=O)[C@H](Cc1ccc(O)cc1)NC(=O)[C@H](Cc1ccc(O)cc1)NC(=O)[C@@H](N)CCCCN=[N+]=[N-])C(=O)N[C@@H](Cc1c[nH]cn1)C(=O)NCCNCCNCCNCCNC(=O)CNCC(=O)N[C@@H](Cc1c[nH]cn1)C(=O)N[C@@H](Cc1ccc(O)cc1)C(=O)N[C@@H](Cc1ccc(O)cc1)C(=O)N[C@@H](Cc1ccc(O)cc1)C(=O)O [IDAtp1-H-LinA]	–
